Laboratory results taken from patent publication US20150191446A1, “SELENO-COMPOUNDS AND THERAPEUTIC USES THEREOF” (THE HEART RESEARCH INSTITUTE LTD, priority 2010, published 2015).

What was measured:
[1] = tested on: wounds in wildtype C57/BL6 mice; assay: Circular incision wound model, topical treatment, wildtype mice; format: in vivo, mouse; conditions: for wound healing (appearance) / pus formation in wound: topical; for wound healing (appearance): FIG. 25, 26
Experimental: In the experimental testing according to the present invention, pairs of circular incision wounds on the backs of wildtype C57/BL6 and db−/db− mice (n=12 each) were treated daily with a seleno-compound according to the current invention or vehicle, topically for 10 days. Wound closure, vascular perfusion and tissue histology were assessed.

[2] = ThioGlo assay, recycling of selenoxides by thiols: cysteine; conditions: Cys samples
Experimental: (§1) The purpose of these experiments was to determine whether thiols could reduce the selenoxides formed on oxidation of the seleno compounds. The ThioGlo assay was used to monitor the loss of thiol groups upon addition of selenoxides as this agent produces a fluorescent product in the presence of reduced thiols.
(§2) The ThioGlo reagent was prepared by diluting 30 μL of a stock solution (5 mg in 5.070 mL acetonitrile) in 2970 μL of 0.1 M pH 7.4 phosphate buffer. Preparation of the developing reagent was performed immediately prior to addition to standards or samples. Standard curves were prepared by addition of varying volumes, between 0 and 50 μL, of 10 μM GSH solution to wells in a 96-well plate. The volume in each well was made up to 50 μL with 0.1 M pH 7.4 phosphate buffer. 50 μL of ThioGlo•reagent was added to each standard, and incubated in the dark for 5 minutes. The fluorescence was measured using a PerSeptive Biosystems CytoFluor II fluorescence multi-well plate reader with λex=360 nm λem=530 nm. Standards using 10 μM Cys and 2 mg/mL BSA were produced in the same method.
(§3) Solutions of 8 μM SeMetO were produced by mixing 20 μM SeMet and 16 μM HOCl together, and incubating for 30 minutes. […] The fluorescence was measured using the PerSeptive Biosystems CytoFluor II fluorescence multi-well plate reader with λex=360 nm λem=530 nm. […]

[3] = ThioGlo assay, recycling of selenoxides by thiols: glutathione; conditions: GSH samples
Experimental: as §1, §2, §3

[4] = target: bovine serum albumin (Bos taurus, UniProt P02769); assay: ThioGlo assay, recycling of selenoxides by thiols: bovine serum albumin; conditions: thiol group on bovine serum albumin
bovine serum albumin, sequence (P02769 25-607): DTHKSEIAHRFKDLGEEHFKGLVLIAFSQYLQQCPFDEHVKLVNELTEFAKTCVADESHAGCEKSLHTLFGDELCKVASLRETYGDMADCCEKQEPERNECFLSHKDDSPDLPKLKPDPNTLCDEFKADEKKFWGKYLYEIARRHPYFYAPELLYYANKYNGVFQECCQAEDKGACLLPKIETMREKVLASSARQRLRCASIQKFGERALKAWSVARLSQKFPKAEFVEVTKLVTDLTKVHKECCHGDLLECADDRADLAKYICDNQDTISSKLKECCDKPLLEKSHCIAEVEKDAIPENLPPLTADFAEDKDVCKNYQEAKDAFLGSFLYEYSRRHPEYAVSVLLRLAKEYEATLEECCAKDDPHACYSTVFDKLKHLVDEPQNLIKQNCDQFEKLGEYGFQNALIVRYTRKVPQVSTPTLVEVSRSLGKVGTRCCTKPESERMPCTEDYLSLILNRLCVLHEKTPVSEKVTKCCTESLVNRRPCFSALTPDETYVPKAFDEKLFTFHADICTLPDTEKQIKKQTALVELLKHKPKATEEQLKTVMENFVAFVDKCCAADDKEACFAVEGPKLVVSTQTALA
Experimental: as §1, §2, §3

[5] = tested on: human plasma; assay: 3-chlorotyrosine formation by HOCl in human plasma (LCMS); format: biochemical; conditions: FIG. 5B
Experimental: (§4) Varying concentrations of Se-sugars (1.0 mM-0.05 mM) were added to solutions containing 0.1 mg·mL^−1 of protein (BSA or Plasma).
(§5) 150 μL of each sample (Se1HSA1—Control) were added to 50 μL of 3 mM HOCl. Samples, with a final volume of 200 μL, were placed in a glass vial (8×40 mm, 1 mL, No. 98212, Alltech) labeled by etching with a diamond tipped pen or engraver. Proteins (0.1 mg in 200 μL) were delipidated and precipitated by the addition of 25 μL 0.3% (w/v) deoxycholic acid and 50 μL of 50% (w/v) TCA, with incubation on ice for 5 min. The glass vials containing samples were placed in 1.5 mL centrifuge tubes for 2 minutes at 9000 rpm at 5° C. (Eppendorf 5415R centrifuge) to pellet protein. Protein pellets were washed once with 5% (w/v) TCA, and twice with ice cold acetone (stored in […]) with 2 min, 9000 rpm, spins between washes in each case to settle pellets. The samples were then transferred to PicoTag hydrolysis vessels before the addition of 150 μL of 6 M HCl and 50 μL of thioglycolic acid into the PicoTag vessel and placed under vacuum in the oven at 110° C. for 16-18 hours. The PicoTag vessels were removed from oven and allowed to cool before releasing vacuum. […]
(§6) L-Tyrosine, 3-chlorotyrosine and di-tyrosine were analysed by LC-MS in the positive ion mode with a Finigan LCQ Deca XP ion-trap instrument coupled to a Finigan surveyor HPLC system. […]

[6] = tested on: BSA; assay: 3-chlorotyrosine formation by HOCl in BSA (LCMS); format: biochemical, bovine; conditions: FIG. 5A
Experimental: as §4, §5, §6

Compound	wound healing (appearance) ([1]; same dose)	amount of thiols after selenoxide addition [2]	amount of thiols after selenoxide addition [3]	reduction of selenoxide by thiol group [4]	further results
OC[C@@H](O)[C@@H]1[Se]C[C@@H](O)[C@H]1O [compound 38, 1,4.-Anhydro-4-seleno-D-talitol]	improved wound closure and healing	–	–	–	–
C[Se](=O)CC[C@H](N)C(=O)O (stereo partly drawn) [SeMetO, selenomethionine oxide]	–	dose dependent decreases	dose dependent decreases	less marked	–
O=[Se]1C[C@@H](O)[C@@H](O)[C@@H]1[C@H](O)CO (stereo partly drawn) [SeTalO]	–	dose dependent decreases	dose dependent decreases	less marked	–
O[C@@H]1C[Se]C[C@H]1O (racemic) [DHSred, DL-trans-3,4,-Dihydroxy-L-selenolane]	inferior healing	–	–	–	inflammatory response during wound healing ([1]; FIG. 25): resulted in an inflammatory response; pus formation in wound ([1]; same dose, FIG. 25): development of pus; wound healing (appearance) ([1]; same dose, listed as DL-trans-3,4,-Dihydroxy-L-selenolane): reduced wound healing; pus formation in wound ([1]; same dose, FIG. 25, listed as DL-trans-3,4,-Dihydroxy-L-selenolane): observable pus formation; scar tissue formed during wound healing ([1]; wildtype mice, same dose, FIG. 26): pronounced scar tissue build up
OCC1[Se]CC(O)C(O)[C@@H]1O (stereo partly drawn) [compound 4, 1,5-Anhydro-5-seleno-L-gulitol]	–	–	–	–	3-chloro-tyrosine formation by HOCl [5]: effectively preventing; 3-chloro-tyrosine formation by HOCl [6]: effectively preventing
